From US20210137953A1, “Inhibitors of Mcl-1 and Akt Binding, Pharmaceutical Compositions, and Uses in Treating Cancer” (Emory University, priority 2019, published 2021)
Entries after “also recorded” stand apart in the source; their conditions may differ.

Legend:
[1] = target: T1, Mcl-1/Akt complexes (Homo sapiens, UniProt P31749); assay: Co-IP of Mcl-1/Akt interaction in H1299 cells; format: cell-based; details: increasing concentrations
T1 construct: treatment of H1299 cells with increasing concentrations of PH-687; endogenous in cells; host or cells: H1299
T1 sequence (P31749 whole entry, one chain of several): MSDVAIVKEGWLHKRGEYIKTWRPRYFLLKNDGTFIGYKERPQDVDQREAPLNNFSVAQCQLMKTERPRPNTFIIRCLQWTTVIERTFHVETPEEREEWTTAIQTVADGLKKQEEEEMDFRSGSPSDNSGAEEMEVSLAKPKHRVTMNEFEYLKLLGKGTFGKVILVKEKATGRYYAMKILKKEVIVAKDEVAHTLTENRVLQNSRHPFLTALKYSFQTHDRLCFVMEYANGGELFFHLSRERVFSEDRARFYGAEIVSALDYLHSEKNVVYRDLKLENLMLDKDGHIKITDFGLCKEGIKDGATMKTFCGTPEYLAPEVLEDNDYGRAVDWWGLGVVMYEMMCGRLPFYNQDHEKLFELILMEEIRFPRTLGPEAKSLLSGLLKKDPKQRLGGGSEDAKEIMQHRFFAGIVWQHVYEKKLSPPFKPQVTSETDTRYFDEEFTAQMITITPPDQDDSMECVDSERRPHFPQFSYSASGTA
Description: To evaluate the mechanism by which Mcl-1 regulates Akt, coimmunoprecipitation (co-IP) experiments using Mcl-1 or Akt antibody were performed in H1299 parental versus H1299 Mcl-1^−/^− cells. […] Because Akt antibody could pull-down Mcl-1 protein only in H1299 parental, but not in H1299 Mcl-1^−/^− cells, this indicates a potential direct interaction between Mcl-1 and Akt in human lung cancer cells. To further verify this interaction, similar co-IP experiments were carried out in a cell-free system using purified recombinant Mcl-1 and Akt proteins. Consistently, Mcl-1 also directly interacted with Akt in the cell-free system. To detect the intracellular localization(s) of Akt/Mcl-1 interaction, a Duolink™ proximity ligation assay (PLA) system was employed to detect Akt/Mcl-1 interaction in H1299 cells and H460 cells according to the manufacturer's instructions. Two primary antibodies raised in different species (i.e., Mcl-1 antibody from rabbit and Akt antibody from mouse) are used to detect two unique protein targets. […] PLA signals were detected by fluorescence microscopy as discrete spots. […]
To test whether PH-687 specifically binds to the PH domain in Akt, recombinant GST-tagged WT Akt, PH deletion Akt mutant (DPH), and PH domain-only proteins were generated and PH-687 compound/Akt protein binding were measured using a thermal shift assay. […]

[2] = system: GST-DPH (PH deletion Akt mutant); assay: thermal shift assay, PH deletion Akt mutant; format: binding; details: GST-DPH protein, increasing concentrations
Description: (§1) To test whether PH-687 specifically binds to the PH domain in Akt, recombinant GST-tagged WT Akt, PH deletion Akt mutant (DPH), and PH domain-only proteins were generated and PH-687 compound/Akt protein binding were measured using a thermal shift assay. Thermal shift assay is a technique to study protein/small-molecule interactions that enhance protein thermal stability and increase melting temperatures as described in Jin et al. Glutamate dehydrogenase 1 signals through antioxidant glutathione peroxidase 1 to regulate redox homeostasis and tumor growth. Cancer Cell, 2015, 27:257-70. […] Because PH-687 can bind to the Mcl-1-binding site (i.e., PH domain) on Akt protein, the effect of PH-687 on Mcl-1/Akt interaction was tested.

[3] = toxicity in xenograft-bearing mice (body weight, blood chemistry, blood counts); format: in vivo; details: 30-90 mg/kg/day
Description: (§2) To test the antitumor potency of PH-687 in vivo, nude mice with NSCLC (i.e., H1299) xenografts were treated with increasing doses (0, 30, 60, and 90 mg/kg/day) of PH-687 for 4 weeks.
(§3) Six-week-old male nude mice were purchased from Harlan and housed under pathogen-free conditions. H1299 cells were subcutaneously implanted into mouse flanks. Tumor bearing mice were randomly grouped and tumors were allowed to grow to an average volume of 100 mm3 before treatment. Mice were treated with PH-687 through intraperitoneal injection (i.p) at the indicated dose. During treatment, tumor volumes were measured by caliper once every 4 days.

[4] = target: T2, Akt/mTORC2 (Homo sapiens, UniProt P31749); assay: interaction of Akt with mTORC2 in H1299 cells; format: cell-based
T2 construct: endogenous in cells; host or cells: H1299
T2 sequence (P31749 whole entry): as the sequence (P31749 whole entry, one chain of several) above
Description: (§4) PIP3 directly binds to the PH domain and induces a conformational change in Akt, which enables PDK1 or mTORC2 to access and phosphorylate Akt at T308 or S473. To test whether Mcl-1, similar to PIP3, may also affect the interactions between Akt and PDK1 or mTORC2, co-IP experiments using Akt antibody were performed in H1299 parental cells or H1299 Mcl-1^−/^− cells expressing WT Mcl-1, DPEST Mcl-1 mutant, or empty vector, followed by Western blot using PDK1 or mTORC2 antibody, respectively. Results reveal that knockout of Mcl-1 disrupted Akt/PDK1 and Akt/mTORC2 interactions, and expression of WT Mcl-1, but not PEST deletion mutant, restored Akt/PDK1 and Akt/mTORC2 interactions.
(§5) To test whether PH-687-mediated Mcl-1/Akt dissociation enhances interaction between the PH and KD domains, a mammalian two-hybrid system was employed to measure the PH/KD interaction in H1299 cells using Gal4BD-Akt KD, VP16AD-Akt PH, and pG5SEAP in the absence or presence of PH-687.

[5] = system: H1299 Mcl-1−/− cells; assay: colony formation assay, H1299 Mcl-1−/− cells; format: cell-based, human; details: knockout of Mcl-1 by CRISPR/cas9, vs H1299 parental; 0, 0.1, 0.5, 1 mmol/L
Description: (§6) To further test whether PH-687 specifically functions through targeting Mcl-1/AKT signaling in lung cancer cells, H1299 parental cells, H1299 Mcl-1^−/^− cells and H1299 cells expressing Akt siRNA were treated with increasing concentrations of PH-687 (0, 0.1, 0.5, 1 mmol/L), followed by colony formation assay.

[6] = system: H1299 parental cells; assay: colony formation assay, H1299 parental cells; format: cell-based, human; details: H1299 cells, 0, 0.1, 0.5, 1 mmol/L
Description: as §6

[7] = target: T3, Akt/PDK1 (Homo sapiens, UniProt P31749); assay: interaction of Akt with PDK1 in H1299 cells; format: cell-based
T3 construct: endogenous in cells; host or cells: H1299
T3 sequence (P31749 whole entry): as the sequence (P31749 whole entry, one chain of several) above
Description: as §4, §5

[8] = system: human lung cancer cells; assay: sulforhodamine B cytotoxicity screening; format: cell-based; details: sulforhodamine B assay; among the top 500 small molecules from docking
Text: The small molecules were ranked according to their energy scores. The top 500 small molecules based on predicted binding energies were selected for screening of cytotoxicity in human lung cancer cells by sulforhodamine B assay as described in Park et al. Novel small molecule inhibitors of Bcl-XL to treat lung cancer. Cancer Res 2013;73: 5485-96.

[9] = system: Akt; assay: Akt activity in human lung cancer cell lines; format: cell-based
[10] = system: various human lung cancer cell lines (H1299, H157, H460); assay: colony formation / growth in various human lung cancer cell lines; format: cell-based
[11] = system: H1299 cells expressing Akt siRNA; assay: colony formation assay, H1299 cells expressing Akt siRNA; format: cell-based, human; details: knockdown of Akt by Akt siRNA, vs H1299 parental; 0, 0.1, 0.5, 1 mmol/L
Description: as §6

[12] = target: T4, GST-tagged WT Akt (Homo sapiens, UniProt P31749); assay: thermal shift assay, GST-WT Akt; format: binding; details: purified GST-WT Akt, increasing concentrations
T4 construct: made in house
T4 sequence (P31749 whole entry): as the sequence (P31749 whole entry, one chain of several) above
Description: as §1

[13] = target: T5, GST-PH domain-only Akt protein (Homo sapiens, UniProt P31749); assay: thermal shift assay, PH domain-only protein; format: binding; details: purified GST-PH-mutant (PH domain-only) protein, increasing concentrations
T5 construct: PH domain-only proteins were generated; made in house
T5 sequence (P31749 5-108 limits assumed): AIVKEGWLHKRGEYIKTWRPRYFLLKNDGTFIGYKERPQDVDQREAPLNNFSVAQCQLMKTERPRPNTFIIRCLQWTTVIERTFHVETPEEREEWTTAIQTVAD
Description: as §1

[14] = system: Akt phosphorylation; assay: growth factor-induced Akt phosphorylation in H1299 cells; format: cell-based, human; details: 2 mmol/L, 1 hour, EGF 100 ng/mL, IGF 10 ng/mL or insulin 1 mg/mL
Description: To test whether Mcl-1 or PH-687 also affects Akt activation by growth factors such as EGF, IGF, or insulin, first, H1299 parental and H1299 Mcl-1^−/^− cells were treated with EGF (100 ng/mL), IGF (10 ng/mL), or insulin (1 mg/mL) for 1 hour, followed by analysis of Akt phosphorylation. […] Knockout of Mcl-1 blocked EGF, IGF, and insulin-induced Akt phosphorylation at S473 and T308. Second, H1299 cells were treated with EGF (100 ng/mL), IGF (10 ng/mL), or insulin (1 mg/mL) in the absence or presence of PH-687 (2 mmol/L) for 1 hour, followed by analysis of Akt phosphorylation. Results reveal that PH-687 inhibited EGF, IGF, and insulin-induced Akt phosphorylation at S473 and T308.

[15] = system: NSCLC (H1299) xenografts; assay: H1299 lung cancer xenografts in nude mice; format: in vivo
Description: Nu/Nu nude mice with H1299 lung cancer xenografts were treated with increasing doses of PH-687 for 4 weeks. Tumor volume was measured once every 4 days. After 28 days, mice were sacrificed and the tumors were removed, photographed, and analyzed.
as §2, §3
Paraffin-embedded human lung tissue samples from 208 patients with NSCLC were obtained. Tissue microarray was constructed with replicate cores of tumor and adjacent normal lung. After deparaffinization, rehydration, inactivation of endogenous peroxidase, and antigen retrieval, IHC staining was performed. The following primary antibody dilutions were used: anti-Mcl-1 (1:300), anti-pAKT S473 (1:100), anti-pAKT T308 (1:100), anti-Ki67 (1:500), and anti-active caspase-3 (1:100). Ki67-positive cells and active caspase-3-positive cells in tumor tissues were scored. Percentage of positive cells was determined from three separate fields in each of three independent tumor samples. The semiquantitative evaluation of IHC staining of Mcl-1 and pAkt was carried out using an immunoscore based on both the percentage of stained cells and staining intensity.

[16] = system: Akt PH/KD interaction; assay: mammalian two-hybrid system (SEAP), PH/KD interaction in H1299 cells; format: cell-based, human; details: H1299 cells, 0, 0.5, 1, 2 mmol/L, 24 hours
Text: Because Mcl-1 can directly interact with Akt at the PH domain, experiments were designed to test whether Mcl-1 affects the intramolecular PH domain/KD interaction. GST-tagged KD, GFP-tagged PH domain, and Flag-tagged WT Mcl-1 or DPEST Mcl-1 mutant were used for co-transfection and co-IP experiments. […] To further confirm these findings, a mammalian two-hybrid system was employed to measure the PH/KD interaction. Co-transfection of Gal4BD-Akt KD and VP16AD-Akt PH along with pG5SEAP in cells drives the expression of secreted alkaline phosphatase (SEAP) when KD/PH interaction occurs. To test the effect of Mcl-1 on KD/PH interaction, the two-hybrid H1299 Mcl-1^−/^− cells were co-transfected with WT Mcl-1 or DPEST mutant Mcl-1, followed by analysis of SEAP activity. […] Because the PEST domain is required for Mcl-1/Akt binding, it is proposed that Mcl-1 disruption of intramolecular PH domain/kinase domain interactions may occur through Mcl-1/Akt binding.
as §5

[17] = harvested tumor tissues after treatment

N=c1ccn2c(n1)OC1C(OP(=O)(O)O)C(CO)OC12 (stereo not shown) [PH-687, 2-(hydroxymethyl)-6-imino-2,3,3a,9a-tetrahydro-6H-furo[2′,3′:4,5]oxazolo[3,2-a]pyrimidin-3-yl dihydrogen phosphate]
dissociation of Mcl-1/Akt complexes [1]: dose-dependent dissociation of Mcl-1/Akt complexes
Tm (melting temperature) [2]: no significant increase in Tm
increase in alanine aminotransferase [3]: no significant increase
increase in aspartate aminotransferase [3]: no significant increase
increase in blood urea nitrogen [3]: no significant increase
reduction in PLT [3]: no significant
reduction in RBC [3]: no significant
reduction in WBC [3]: no significant
reduction in hemoglobin [3]: no significant
weight loss [3]: no significant weight loss
interaction of Akt with mTORC2 [4]: dose dependent decreased interaction
inhibitory effect on cell growth (colony formation) [5]: reduced the inhibitory effect
cell growth (colony formation) [6]: growth inhibition in a dose-dependent manner
interaction of Akt with PDK1 [7]: dose dependent decreased interaction
activity against human lung cancer cells (cytotoxicity) [8]: most potent activity
Akt activity [9]: significantly reduced Akt activity
cell growth [10]: growth inhibition
inhibitory effect on cell growth (colony formation) [11]: reduced the inhibitory effect
Tm (melting temperature) [12]: Dose-dependent increases in Tm
Tm (melting temperature) [13]: Dose-dependent increases in Tm
EGF, IGF, and insulin-induced Akt phosphorylation at S473 [14]: inhibited
EGF, IGF, and insulin-induced Akt phosphorylation at T308 [14]: inhibited
Ki67 level in tumor tissues (IHC) [15, 17]: decreased levels
apoptosis (active caspase-3) in tumor tissues (IHC) [15, 17]: increased apoptosis
pAkt (S473) level in tumor tissues (IHC) [15, 17]: decreased levels
pAkt (T308) level in tumor tissues (IHC) [15, 17]: decreased levels
tumor growth (tumor volume) ([15]; nude mice, 0, 30, 60, 90 mg/kg/day i.p., 4 weeks): suppressed tumor growth in a dose-dependent manner; also recorded: suppresses tumor growth
PH/KD interaction [16]: increased PH/KD interaction in a dose-dependent manner
